Data published in ChEMBL document CHEMBL3727364, “Resorcinol n-aryl amide compounds, for use as pyruvate dehydrogenase kinase inhibitors” (2015).

Target: [Pyruvate dehydrogenase (acetyl-transferring)] kinase isozyme 1, mitochondrial (Homo sapiens, UniProt Q15118)
Test: Binding affinity to pyruvate dehydrogenase kinase 1 (unknown origin) incubated for 90 mins by VER-00160364 probe based fluorescence polarization assay

Sequence of [Pyruvate dehydrogenase (acetyl-transferring)] kinase isozyme 1, mitochondrial (Q15118 whole entry): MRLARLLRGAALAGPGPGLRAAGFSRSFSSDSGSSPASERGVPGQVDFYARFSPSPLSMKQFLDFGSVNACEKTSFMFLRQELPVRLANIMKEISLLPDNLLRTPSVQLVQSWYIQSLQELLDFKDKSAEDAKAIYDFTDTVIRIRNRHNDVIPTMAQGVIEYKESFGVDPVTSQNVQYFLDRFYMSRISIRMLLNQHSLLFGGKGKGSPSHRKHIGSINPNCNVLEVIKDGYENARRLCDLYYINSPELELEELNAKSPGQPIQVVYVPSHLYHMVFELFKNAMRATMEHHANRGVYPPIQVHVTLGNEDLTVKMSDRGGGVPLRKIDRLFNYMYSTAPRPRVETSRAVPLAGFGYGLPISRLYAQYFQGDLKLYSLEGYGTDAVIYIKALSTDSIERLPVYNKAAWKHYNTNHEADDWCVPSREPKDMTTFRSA

| SMILES | IC50 |
| --- | --- |
| Cc1nc(-c2ccc(N(Cc3cccnc3)C(=O)c3ccc(O)cc3O)cc2)c2ccccc2n1 | 100 nM |
| O=C(c1ccc(O)cc1O)N(Cc1cccnc1)c1ccc(-c2ccc(Cl)cc2Cl)cc1 | 1000 nM |
| O=C(c1ccc(O)cc1O)N(Cc1cccnc1)c1ccc(-c2nccc3occc23)cc1 | 1000 nM |
| Cc1nccn1-c1ccc(-c2ccc(N(Cc3cccnc3)C(=O)c3ccc(O)cc3O)cc2)nn1 | 100 nM |
| O=C(c1ccc(O)cc1O)N(Cc1cccnc1)c1ccc(-c2ccc(NC3CC3)nn2)cc1 | 1000 nM |
| Nc1ccc(-c2ccc(N(Cc3cccnc3)C(=O)c3ccc(O)cc3O)cc2)nn1 | 1000 nM |
| O=C(c1ccc(O)cc1O)N(Cc1cccnc1)c1ccc(-c2ccc(-n3ccnc3)nn2)cc1 | 1000 nM |
| Cc1cc2cc(F)ccc2nc1-c1ccc(N(Cc2cccnc2)C(=O)c2ccc(O)cc2O)cc1 | 100 nM |
| CSc1nc(-c2ccc(N(Cc3cccnc3)C(=O)c3ccc(O)cc3O)cc2)c2cc[nH]c2n1 | 100 nM |
| N#Cc1cncnc1-c1ccc(N(Cc2cccnc2)C(=O)c2ccc(O)cc2O)cc1 | 100 nM |
| CCc1cc2ccccc2nc1-c1ccc(N(Cc2cccnc2)C(=O)c2ccc(O)cc2O)cc1 | 100 nM |
| Cc1ncc(C)c(-c2ccc(N(Cc3cccnc3)C(=O)c3ccc(O)cc3O)cc2)n1 | 10 nM |
| COc1ccc(-c2ccc(N(Cc3cccnc3)C(=O)c3ccc(O)cc3O)cc2)c(OC)c1 | 1000 nM |
| COCCN(C)S(=O)(=O)c1cnc(-c2ccc(N(Cc3cccnc3)C(=O)c3ccc(O)cc3O)cc2)c(C)c1 | 10 nM |
| COc1ccc(-c2ccc(N(Cc3cccnc3)C(=O)c3ccc(O)cc3O)cc2)c(Cl)c1 | 1000 nM |
| COc1cc2ncnc(-c3ccc(N(Cc4cccnc4)C(=O)c4ccc(O)cc4O)cc3)c2cc1OC | 1000 nM |
| Nc1nccc(-c2ccc(N(Cc3cccnc3)C(=O)c3ccc(O)cc3O)cc2)n1 | 1000 nM |
| Cc1ccc(C)c(-c2ccc(N(Cc3cccnc3)C(=O)c3ccc(O)cc3O)cc2)n1 | 1000 nM |
| O=C(c1ccc(O)cc1O)N(Cc1cccnc1)c1ccc(-c2nc(C(F)(F)F)ccc2C(F)(F)F)cc1 | 10 nM |
| O=C(c1ccc(O)cc1O)N(Cc1cccnc1)c1ccc(-c2nc(Cl)nc3[nH]ccc23)cc1 | 100 nM |
| Cc1cc2ccc(F)cc2nc1-c1ccc(N(Cc2cccnc2)C(=O)c2ccc(O)cc2O)cc1 | 100 nM |
| CSc1nc2c(c(-c3ccc(N(Cc4cccnc4)C(=O)c4ccc(O)cc4O)cc3)n1)CCC2 | 100 nM |
| CNc1nccc(-c2ccc(N(Cc3cccnc3)C(=O)c3ccc(O)cc3O)cc2)n1 | 100 nM |

| SMILES | IC50 |
| --- | --- |
| Cc1cnc(-c2ccc(N(Cc3cccnc3)C(=O)c3ccc(O)cc3O)cc2)c(C)n1 | 10 nM |
| N#Cc1cccc(-c2ccc(N(Cc3cccnc3)C(=O)c3ccc(O)cc3O)cc2)c1 | 1000 nM |
| Cc1nc(N(C)C)nc(-c2ccc(N(Cc3cccnc3)C(=O)c3ccc(O)cc3O)cc2)c1C | 1000 nM |
| CCc1cnc(C)nc1-c1ccc(N(Cc2cccnc2)C(=O)c2ccc(O)cc2O)cc1 | 10 nM |
| O=C(c1ccc(O)cc1O)N(Cc1cccnc1)c1ccc(-c2ccc(N3CCCC3)nn2)cc1 | 100 nM |
| O=C(c1ccc(O)cc1O)N(Cc1cccnc1)c1ccc(-c2nc3ccc(Cl)cc3cc2CO)cc1 | 10 nM |
| Cc1cc(S(=O)(=O)N2CC(F)(F)C2)cnc1-c1ccc(N(Cc2cccnc2)C(=O)c2ccc(O)cc2O)cc1 | 10 nM |
| N#Cc1cc(Cl)nc(-c2ccc(N(Cc3cccnc3)C(=O)c3ccc(O)cc3O)cc2)c1 | 100 nM |
| Cc1cc(S(=O)(=O)N2CCN(C)CC2)cnc1-c1ccc(N(Cc2cccnc2)C(=O)c2ccc(O)cc2O)cc1 | 10 nM |
| Cc1cc(S(=O)(=O)NCc2ccccn2)cnc1-c1ccc(N(Cc2cccnc2)C(=O)c2ccc(O)cc2O)cc1 | 10 nM |
| Cc1cncnc1-c1ccc(N(Cc2cccnc2)C(=O)c2ccc(O)cc2O)cc1 | 100 nM |
| O=C(c1ccc(O)cc1O)N(Cc1cccnc1)c1ccc(-c2nc3ccccc3o2)cc1 | 1000 nM |
| Cc1nccnc1-c1ccc(N(Cc2cccnc2)C(=O)c2ccc(O)cc2O)cc1 | 100 nM |
| O=C(c1ccc(O)cc1O)N(Cc1cccnc1)c1ccc(-c2nncc3ccccc23)cc1 | 100 nM |
| CCOC(=O)c1nc(C)nc(-c2ccc(N(Cc3cccnc3)C(=O)c3ccc(O)cc3O)cc2)c1C | 100 nM |
| Cc1c(-c2ccc(N(Cc3cccnc3)C(=O)c3ccc(O)cc3O)cc2)ccc2[nH]ncc12 | 1000 nM |
| O=C(c1ccc(O)cc1O)N(Cc1cccnc1)c1ccc(-c2ncnc3cccc(F)c23)cc1 | 10 nM |
| CC(=O)N1CCN(S(=O)(=O)c2cnc(-c3ccc(N(Cc4cccnc4)C(=O)c4ccc(O)cc4O)cc3)c(C)c2)CC1 | 10 nM |
| COc1cnc(-c2ccc(N(Cc3cccnc3)C(=O)c3ccc(O)cc3O)cc2)cc1OC | 100 nM |
| CCc1nccnc1-c1ccc(N(Cc2cccnc2)C(=O)c2ccc(O)cc2O)cc1 | 100 nM |
| CSc1nc(Cl)cc(-c2ccc(N(Cc3cccnc3)C(=O)c3ccc(O)cc3O)cc2)n1 | 1000 nM |
| CC(=O)NCCNS(=O)(=O)c1cnc(-c2ccc(N(Cc3cccnc3)C(=O)c3ccc(O)cc3O)cc2)c(C)c1 | 10 nM |
| O=C(c1ccc(O)cc1O)N(Cc1cccnc1)c1ccc(-c2ncccc2CO)cc1 | 100 nM |

| SMILES | IC50 |
| --- | --- |
| Cc1cn(-c2ccc(-c3ccc(N(Cc4cccnc4)C(=O)c4ccc(O)cc4O)cc3)nn2)cn1 | 100 nM |
| Cc1csc2ncnc(-c3ccc(N(Cc4cccnc4)C(=O)c4ccc(O)cc4O)cc3)c12 | 100 nM |
| CCOc1ccc2nc(-c3ccc(N(Cc4cccnc4)C(=O)c4ccc(O)cc4O)cc3)c(C)cc2c1 | 100 nM |
| CCOC(=O)c1nc(-c2ccc(N(Cc3cccnc3)C(=O)c3ccc(O)cc3O)cc2)c2ccccc2n1 | 100 nM |
| NC(=O)c1nc(-c2ccc(N(Cc3cccnc3)C(=O)c3ccc(O)cc3O)cc2)c2ccccc2n1 | 100 nM |
| O=C(c1ccc(O)cc1O)N(Cc1cccnc1)c1ccc(-c2nc3ccccc3cc2CO)cc1 | 100 nM |
| CCNc1cc(-c2ccc(N(Cc3cccnc3)C(=O)c3ccc(O)cc3O)cc2)ncn1 | 1000 nM |
| O=C(c1ccc(O)cc1O)N(Cc1cccnc1)c1ccc(-c2nc3ccccc3nc2C(F)(F)F)cc1 | 100 nM |
| O=C(c1ccc(O)cc1O)N(Cc1cccnc1)c1ccc(-c2nc(C(F)(F)F)nc3ccccc23)cc1 | 100 nM |
| Cc1cc(-c2ccc(N(Cc3cccnc3)C(=O)c3ccc(O)cc3O)cc2)nnc1Cl | 1000 nM |
| O=C(c1ccc(O)cc1O)N(Cc1cccnc1)c1ccc(-c2ccccc2Cl)cc1 | 1000 nM |
| Cc1cc2cccc(C)c2nc1-c1ccc(N(Cc2cccnc2)C(=O)c2ccc(O)cc2O)cc1 | 1000 nM |
| Cc1cc(S(=O)(=O)N2CCCCC2)cnc1-c1ccc(N(Cc2cccnc2)C(=O)c2ccc(O)cc2O)cc1 | 10 nM |
| O=C(c1ccc(O)cc1O)N(Cc1cccnc1)c1ccc(-c2cnc3ccccc3n2)cc1 | 1000 nM |
| O=C(c1ccc(O)cc1O)N(Cc1cccnc1)c1ccc(-c2ccc(Cl)nc2)cc1 | 1000 nM |
| O=C(c1ccc(O)cc1O)N(Cc1cccnc1)c1ccc(-c2ccnc3ccsc23)cc1 | 100 nM |
| Cc1nc(C)c(-c2ccc(N(Cc3cccnc3)C(=O)c3ccc(O)cc3O)cc2)s1 | 1000 nM |
| O=C(c1ccc(O)cc1O)N(Cc1cccnc1)c1ccc(-c2ccncc2C(F)(F)F)cc1 | 100 nM |
| Cc1cc(S(=O)(=O)N2CCOCC2)cnc1-c1ccc(N(Cc2cccnc2)C(=O)c2ccc(O)cc2O)cc1 | 10 nM |
| CCCc1cncnc1-c1ccc(N(Cc2cccnc2)C(=O)c2ccc(O)cc2O)cc1 | 100 nM |
| Cc1ccnnc1-c1ccc(N(Cc2cccnc2)C(=O)c2ccc(O)cc2O)cc1 | 100 nM |
| Cc1ccc(-c2ccc(N(Cc3cccnc3)C(=O)c3ccc(O)cc3O)cc2)c(Cl)c1 | 1000 nM |
| Cc1cc(S(=O)(=O)N2CCC(F)(F)CC2)cnc1-c1ccc(N(Cc2cccnc2)C(=O)c2ccc(O)cc2O)cc1 | 10 nM |

| SMILES | IC50 |
| --- | --- |
| Cc1cc(S(=O)(=O)NCc2cccnc2)cnc1-c1ccc(N(Cc2cccnc2)C(=O)c2ccc(O)cc2O)cc1 | 10 nM |
| CNS(=O)(=O)c1cnc(-c2ccc(N(Cc3cccnc3)C(=O)c3ccc(O)cc3O)cc2)c(C)c1 | 10 nM |
| O=C(c1ccc(O)cc1O)N(Cc1cccnc1)c1ccc(-c2nc(-c3ccccc3)nc3ccccc23)cc1 | 1000 nM |
| Cc1cc2cc(Cl)ccc2nc1-c1ccc(N(Cc2cccnc2)C(=O)c2ccc(O)cc2O)cc1 | 100 nM |
| Cc1cc(-c2ccc(N(Cc3cccnc3)C(=O)c3ccc(O)cc3O)cc2)cnc1Cl | 1000 nM |
| COc1ccccc1-c1ccc(N(Cc2cccnc2)C(=O)c2ccc(O)cc2O)cc1 | 1000 nM |
| O=C(c1ccc(O)cc1O)N(Cc1cccnc1)c1ccc(-c2ccc(N3CCOCC3)nn2)cc1 | 1000 nM |
| Cc1c(Cl)nc(Cl)nc1-c1ccc(N(Cc2cccnc2)C(=O)c2ccc(O)cc2O)cc1 | 10 nM |
| COc1cc(-c2ccc(N(Cc3cccnc3)C(=O)c3ccc(O)cc3O)cc2)ncn1 | 1000 nM |
| O=C(c1ccc(O)cc1O)N(Cc1cccnc1)c1ccc(-c2nc(Cl)nc3c2COCC3)cc1 | 100 nM |
| CNc1nnc(-c2ccc(N(Cc3cccnc3)C(=O)c3ccc(O)cc3O)cc2)c2ccccc12 | 100 nM |
| O=C(c1ccc(O)cc1O)N(Cc1cccnc1)c1ccc(-c2nc(-c3ccsc3)nc3ccccc23)cc1 | 1000 nM |
| O=C(c1ccc(O)cc1O)N(Cc1cccnc1)c1ccc(-c2nc3cc(Cl)ccc3o2)cc1 | 1000 nM |
| CC(=O)Nc1ccc(-c2ccc(N(Cc3cccnc3)C(=O)c3ccc(O)cc3O)cc2)c(C)c1 | 100 nM |
| Cc1cc(Cl)nnc1-c1ccc(N(Cc2cccnc2)C(=O)c2ccc(O)cc2O)cc1 | 10 nM |
| O=C(c1ccc(O)cc1O)N(Cc1cccnc1)c1ccc(-c2ncnc3ccc(Cl)cc23)cc1 | 100 nM |
| COc1ccc2nc(-c3ccc(N(Cc4cccnc4)C(=O)c4ccc(O)cc4O)cc3)c(C)cc2c1 | 100 nM |
| Cc1cc(S(=O)(=O)NCCN(C)C)cnc1-c1ccc(N(Cc2cccnc2)C(=O)c2ccc(O)cc2O)cc1 | 100 nM |
| Cc1c(Cl)ncc2cc(-c3ccc(N(Cc4cccnc4)C(=O)c4ccc(O)cc4O)cc3)ccc12 | 1000 nM |
| Cc1cc(S(=O)(=O)NCCCC(N)=O)cnc1-c1ccc(N(Cc2cccnc2)C(=O)c2ccc(O)cc2O)cc1 | 10 nM |
| O=C(c1ccc(O)cc1O)N(Cc1cccnc1)c1ccc(-c2cc3cncnc3[nH]2)cc1 | 1000 nM |
| Cc1nc(C(F)(F)F)nc(-c2ccc(N(Cc3cccnc3)C(=O)c3ccc(O)cc3O)cc2)c1C | 10 nM |
